Measurements as given in patent US20090155266A1, “Methods and Compositions Relating to Vascular Endothelial Growth Factor and TH2 Mediated Inflammatory Diseases” (YALE UNIVERSITY, priority 2004, published 2009).

Assays:
[1] = system: OVA sensitized and challenged wild type mice; assay: OVA sensitization and challenge model of Th2 inflammation; assay type: in vivo; conditions: for antigen-stimulated IL-4 production / antigen-stimulated IL-13 production: BAL from OVA sensitized and challenged mice, antagonist IP; for onset of a Th2 mediated inflammatory disease: disease induced by allergen (ovalbumin sensitization) or genetic predisposition, summary statement; for airways hyperresponsiveness (AHR), methacholine responsiveness / BAL and tissue inflammation: wild type mice sensitized and challenged with OVA, SU1498 10 mg/kg/day or VEGF TrapR1R2 25 mg/kg, IP; for BAL and tissue inflammation: starting the day before first OVA dose
Description: The OVA model was undertaken in wild type mice as previously described (Wang et al., 2000). Sensitization and challenge were undertaken in the presence and absence of the VEGF receptor antagonist SU1498 (10 mg/kg/day) or VEGF TrapR1R2 (Regeneron, Inc., Tarrytown, N.Y.) (25 mg/kg) which were given via an intraperitoneal (IP) route starting the day before the first dose of OVA. The VEGF TrapR1R2 is a fusion protein comprised of the extracellular domains of VEGFR1 and VEGFR2 coupled to the Fc-portion of IgG that binds VEGF-A, but not VEGF-B or VEGF-C (Cursiefen et al., 2004). T-bet null mutant mice (Finotto et al., 2002) were obtained from the Jackson Laboratories (Bar Harbor, Me.). At 6 weeks of age they were randomized to SU1498 or control vehicle as described above. Two weeks later phenotypic characterization was undertaken as described above.

VEGF-A = target: T1, VEGF-A (Homo sapiens, UniProt P15692); conditions: cited from earlier work
T1 sequence (P15692 207-320 limits assumed): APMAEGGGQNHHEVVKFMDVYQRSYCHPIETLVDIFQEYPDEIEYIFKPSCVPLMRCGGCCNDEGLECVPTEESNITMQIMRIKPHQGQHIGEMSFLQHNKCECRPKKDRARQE

VEGF-B = target: T2, VEGF-B (Homo sapiens, UniProt P49765); conditions: cited from earlier work
T2 sequence (P49765 22-136 limits assumed): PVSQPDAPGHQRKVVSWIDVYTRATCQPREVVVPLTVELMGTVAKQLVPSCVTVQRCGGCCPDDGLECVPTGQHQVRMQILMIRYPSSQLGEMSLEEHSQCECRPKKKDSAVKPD

VEGF-C = target: T3, VEGF-C (Homo sapiens, UniProt P49767); conditions: cited from earlier work
T3 sequence (P49767 112-227 limits assumed): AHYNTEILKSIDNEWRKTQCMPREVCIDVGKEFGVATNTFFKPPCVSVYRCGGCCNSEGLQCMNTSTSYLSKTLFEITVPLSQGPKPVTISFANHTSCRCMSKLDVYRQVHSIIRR

Molecule	antigen-stimulated IL-4 production [1]	antigen-stimulated IL-13 production [1]	onset of a Th2 mediated inflammatory disease [1]	airways hyperresponsiveness (AHR), methacholine responsiveness [1]	BAL and tissue inflammation [1]	binding to VEGF-A (VEGF-A)	binding to VEGF-B (VEGF-B)	binding to VEGF-C (VEGF-C)
VEGF TrapR1R2: fusion protein comprised of the extracellular domains of VEGFR1 and VEGFR2 coupled to the Fc-portion of IgG (Regeneron)	markedly decreased	markedly decreased	prevented onset	abrogates	abrogates	binds	not	not
CC(C)c1cc(/C=C(\C#N)C(=O)NCCCc2ccccc2)cc(C(C)C)c1O [SU1498, reference compound]	markedly decreased	markedly decreased	prevented onset	markedly decreased	markedly decreased			
